The values that follow come from US20080305544A1, “Method of Producing Nerve Cell” (KYOWA HAKKO KOGYO CO., LTD. TOKYO, JAPAN, priority 2004, published 2008).

Test [1] relates to ES cell EB5. Briefly: Nerve cell inducing ratio: colonies with neurite / total colonies, differentiation induction of EB5. Conditions: for induction of nerve cells (nerve cell inducing ratio): FIG. 2; for activity to induce differentiation of embryonic stem cells into nerve cells by the combination of heparin and vitamin B12: substance added to 0.01% heparin and 100 nmol/l vitamin B12, conclusion of Example 2. It is filed as cell-based. Here is the method:
In the following Examples, an ES cell EB5 [Nature Genet., 24, 372, (2000)] was used as the embryonic stem cell. The EB5 was inoculated into a dish coated with 0.1% of gelatin and sub-cultured at 37° C. in a CO2 incubator ventilated with 5% of carbon dioxide while keeping its undifferentiated state, using G-MEM (Invitrogen) containing 1% fetal bovine serum (manufactured by JRH Biosciences), 10% Knockout Serum Replacement (manufactured by Invitrogen), 1 mmol/l pyruvic acid (manufactured by Sigma), 0.1 mmol/l nonessential amino acids (manufactured by Invitrogen), 0.1 mmol/12-mercaptoethanol (manufactured by Nacalai Tesque), […] blasticidin (manufactured by Invitrogen) and 2×10^3 U/ml ESGRO (manufactured by Chemicon) (to be referred to as “maintenance medium” hereinafter). When differentiation of EB5 is induced, 2.5×10^3 cells of EB5 were inoculated into a 24 well plate coated with 0.1% of gelatin, a medium prepared by eliminating serum, blasticidin and ESGRO from the maintenance medium (hereinafter referred to as “differentiation induction medium”) was added at 1 ml to respective wells, and the cells were allowed to adhere thereto by incubating at 37° C. for 2 hours. Thereafter, 500 μl of PBS containing various concentration of heparin (manufactured by Sigma) or vitamin B12 (cyanocobalamin, manufactured by Nacalai Tesque) (hereinafter referred to as “test solution 1”) was added thereto and incubated at 37° C. for 14 days without changing the medium. Each test condition was carried out in tandem. In this connection, the concentrations of heparin and vitamin B12 mean their concentrations in the test solution 1. On the 14th day after addition of the test solution 1, colonies having a diameter of 50 μm or more were counted using an optical microscope to calculate the number of total colonies. Also, among the colonies, a colony on which neurite was observed was regarded as a nerve cell colony, and the nerve cell inducing ratio was calculated by the following formula. Nerve cell inducing ratio(%)=the number of nerve cell colonies/the number of total colonies×100 Nerve cell inducing differentiation ratio was examined in the same manner as in Example 1, except that PBS containing 0.01% of heparin and 100 nmol/l of vitamin B12 (hereinafter referred to as “test solution 2”), a test solution 3 containing 0.1 μg/ml of biotin [(+)-biotin, manufactured by Wako Pure Chemical Industries] in the test solution 2, a test solution 4 containing 0.42 μg/ml of K4[Fe(CN)6] (manufactured by Nacalai Tesque) in the test solution 2, a test solution 5 containing 0.081 μg/ml of putrescine (manufactured by Sigma) in the test solution 2, a test solution 6 containing 0.1 μg/ml of biotin, 0.42 μg/ml of K4[Fe(CN)6] and 0.081 μg/ml of putrescine in the test solution 2 and a test solution 7 containing 0.01% of heparin, 0.1 […] of biotin, 0.42 μg/ml of K[Fe(CN)6] and 0.081 μg/ml of putrescine were used instead of the test solution 1 in the above-described Example 1.

In test [2] the test system is ES cell EB5. Briefly: Number of total colonies formed from EB5 after 14 days of differentiation induction culture. The format is cell-based. As to conditions: vitamin B12 added; heparin 0% vs 0.01% addition condition; 14 days after commencement of culturing; FIG. 1. Here is the method:
In the following Examples, an ES cell EB5 [Nature Genet., 24, 372, (2000)] was used as the embryonic stem cell.
The EB5 was inoculated into a dish coated with 0.1% of gelatin and sub-cultured at 37° C. in a CO2 incubator ventilated with 5% of carbon dioxide while keeping its undifferentiated state, using G-MEM (Invitrogen) containing 1% fetal bovine serum (manufactured by JRH Biosciences), 10% Knockout Serum Replacement (manufactured by Invitrogen), 1 mmol/l pyruvic acid (manufactured by Sigma), 0.1 mmol/l nonessential amino acids (manufactured by Invitrogen), 0.1 mmol/12-mercaptoethanol (manufactured by Nacalai Tesque), […] blasticidin (manufactured by Invitrogen) and 2×10^3 U/ml ESGRO (manufactured by Chemicon) (to be referred to as “maintenance medium” hereinafter). […]
On the 14th day after addition of the test solution 1, colonies having a diameter of 50 μm or more were counted using an optical microscope to calculate the number of total colonies. Also, among the colonies, a colony on which neurite was observed was regarded as a nerve cell colony, and the nerve cell inducing ratio was calculated by the following formula.

Take cyanocobalamin [vitamin B12]: the “induction of nerve cells (nerve cell inducing ratio)” value in the test with ES cell EB5 [1] (heparin 0% addition condition, vitamin B12 added, 14 days) is listed as “hardly induced”; in the test on ES cell EB5 [1] (heparin 0.01% addition condition, vitamin B12 concentration varied, 14 days) it was “nerve cells are induced”.

Regarding heparin, in the test with ES cell EB5 [2], the “number of total colonies” value was “difference in the number of total colonies was not found”. Also, in the test on ES cell EB5 [1] (vitamin B12 not added, heparin concentration varied, 14 days, FIG. 3), the “induction of nerve cells (number of nerve cell colonies)” value was “hardly induced”. With `O=C(O)CCCC[C@@H]1SC[C@@H]2NC(=O)N[C@@H]21` [biotin, (+)-biotin], the “activity to induce differentiation of embryonic stem cells into nerve cells by the combination of heparin and vitamin B12” value with ES cell EB5 [1] was “reinforced”. Take `NCCCCN` [putrescine]: in the test with ES cell EB5 [1], the “activity to induce differentiation of embryonic stem cells into nerve cells by the combination of heparin and vitamin B12” value was “reinforced”.
